# Data: US5919823A, “Treatment of secondary movement disorders using large neutral amino acids” (The Research Foundation For Mental Hygiene, priority 1997, dated 1999)
# Like-named read-outs stand apart in the source and are kept apart here.
# Key:
# [1] = cited from earlier work
# [2] = Plasma large neutral amino acid and phenylethylamine levels, fasting and 2 hours after protein challenge (Study Two); conditions: for Plasma LNAA Ratio, Post-loading / Plasma level, Post-loading: 2 hours after protein challenge; for Plasma LNAA Ratio, Post-loading / Plasma level, Post-loading / Plasma LNAA Ratio, Fasting / Plasma level, Fasting: mean ± SD
# Method: Blood samples were drawn from patients after an overnight fast and 2 hours after the ingestion of a protein challenge. This challenge was served in the form of a breakfast which consisted of orange juice, a cheese omelette, ham, a waffle and coffee.
# The blood samples were assayed for the levels of plasma large neutral amino acids; phenylalanine, tyrosine, tryptophan, alanine, isoleucine, leucine, valine, histidine, and threonine, and for the levels of phenylethylamine. The latter was also measured because it is a major metabolite of phenylalanine and considered to be a neuromodulator.
# The plasma amino acids, with the exception of tryptophan, were analyzed by phenylisothiocyanate (PITC) derivation followed by HPLC. The analysis of tryptophan was performed using HPLC with spectrofluormetric detection.
# The plasma values of the amino acids were studied both as actual levels and as the ratio of phenylalanine level to the level of the other large neutral amino acids in the plasma. This ratio serves as an index of the entry of phenylalanine into the brain, which accounts for the competition of the other large neutral amino acids (LNAA) with phenylalanine (Phe) at the blood brain barrier, as discussed. previously. This ratio is calculated as follows: [formula]
# [3] = TD Symptom Persistence group (n = 15)
# [4] = TD Symptom Remission group (n = 15)
compound,measurement,setting,value
N[C@@H](Cc1c[nH]c2ccc(O)cc12)C(=O)O [5-hydroxytryptophan],effect on TD,"[1]; seven patients, concomitant administration with carbidopa",no change in TD
NC(Cc1c[nH]c2ccccc12)C(=O)O [D-L tryptophan],effect on TD,[1]; 4 patients,no change in TD
N[C@@H](Cc1c[nH]c2ccccc12)C(=O)O [tryptophan],"decrease in tryptophan/LNAA ratio, greater in remittance group",[2]; in vivo,35%
same,magnitude of decrease in tryptophan/LNAA ratio,[2]; in vivo,significantly greater
same,effect on TD,[1]; two case reports,reduction of TD symptoms
N[C@@H](Cc1ccc(O)cc1)C(=O)O [tyrosine],"Plasma LNAA Ratio, Percent Change (Postloading/Fasting)",[2]; [3],0%
same,"Plasma level, Percent Change (Postloading/Fasting)",[2]; [3],+23.1%
same,"Plasma LNAA Ratio, Post-loading",[2]; [3],0.103 ± 0.012
same,"Plasma level, Post-loading",[2]; [3],85.3 ± 22.6 µM
same,"Plasma LNAA Ratio, Fasting",[2]; [3],0.103 ± 0.012
same,"Plasma level, Fasting",[2]; [3],69.3 ± 14.8 µM
same,"Plasma LNAA Ratio, Percent Change (Postloading/Fasting)",[2]; [4],0%
same,"Plasma level, Percent Change (Postloading/Fasting)",[2]; [4],+30.1%
same,"Plasma LNAA Ratio, Post-loading",[2]; [4],0.090 ± 0.020
same,"Plasma level, Post-loading",[2]; [4],84.3 ± 23.5 µM
same,"Plasma LNAA Ratio, Fasting",[2]; [4],0.090 ± 0.022
same,"Plasma level, Fasting",[2]; [4],64.8 ± 17.1 µM
same,percentage change in plasma level,"[2]; symptom remission group vs persistence group, 30 males",larger percentage changes
